Measured values taken from article PMC9556824, “Design, synthesis and computational study of new benzofuran hybrids as dual PI3K/VEGFR2 inhibitors targeting cancer” (Scientific Reports, 2022).
Blank lines part the entries; values can stand above or below the molecule they belong to.

Tests used:
[1] = tested on: Hepatocellular carcinoma (HePG2); assay: Antitumor screening using MTT assay; type: cell-based, human; settings: Homo sapiens
From the text: (§2) Hepatocellular carcinoma (HePG2), mammary gland breast cancer (MCF-7), epithelioid carcinoma cervix cancer (Hela), and human prostate cancer were included on the panel (PC3). […] The cell lines were obtained from the American Type Culture Collection (ATCC) through VACSERA, a Cairo-based holding firm for biological goods and vaccines.
(§3) The panel consisted of hepatocellular carcinoma (HePG2), mammary gland breast cancer (MCF-7), epithelioid carcinoma cervix cancer (Hela) and human prostate cancer (PC3). Human lung fibroblast (WI38) was used to assay the cytotoxicity effect on normal cell. The cell lines were obtained from ATCC via Holding company for biological products and vaccines (VACSERA), Cairo, Egypt. The cytotoxic activity was defined as the concentration of the compound that causes 50% growth inhibition compared with the growth of untreated cells.

[2] = In vitro cytotoxicity against human normal cell line (MTT); type: cell-based; settings: human, WI38, read-out: Average of Relative viability of cells (%)
From the text: (§1) The anticancer agent's selectivity for cancer cells is a critical consideration for any researcher, as it can decrease the molecule's adverse effects on normal human cells.

[3] = tested on: human lung fibroblast (WI38); assay: as above; type: cell-based; settings: Homo sapiens, WI-38, human normal cell line WI38; mean ± SD, n = 3
From the text: as §1

[4] = tested on: HePG2, MCF-7, Hela, PC3 cell lines; assay: Antitumor screening using MTT assay, statements across several cell lines; type: cell-based, human; settings: Homo sapiens; Hela and PC3; one range for 9 and 10 together; read-out: IC50 values range against Hela and PC3 cell line
From the text: as §2, §3

[5] = tested on: mammary gland breast cancer (MCF-7); assay: Antitumor screening using MTT assay; settings: Homo sapiens
[6] = tested on: epithelioid carcinoma cervix cancer (Hela); assay: Antitumor screening using MTT assay; settings: Homo sapiens, HeLa
From the text: as §2, §3

[7] = tested on: human prostate cancer (PC3); assay: Antitumor screening using MTT assay; settings: Homo sapiens
From the text: as §2, §3

[8] = tested on: Hela; design: method as in PMID 25086915; settings: read-out: IC50 against Hela; cited from earlier work
[9] = tested on: MCF-7; design: method as in PMID 25086915; settings: read-out: IC50 against MCF-7; cited from earlier work
[10] = MCF7, read-out: Average of Relative viability of cells (%)
[11] = read-out: Average of Relative viability of cells (%)

IC50 [4]: 13.8 to 32.1 µM
melting point: 154 to 156 °C
Compound: COc1ccccc1/C=N/N=C(\C)c1cc2ccccc2o1 [Compound 10, (E)-1-[1-(benzofuran-2-yl)ethylidene]-2-((E)-2-methoxybenzylidene)hydrazine]
viability at 1.56 µM ([1]; Conc. 1.56 µM, read-out: Average of Relative viability of cells (%)): 100%
viability at 3.125 µM ([1]; Conc. 3.125 µM, read-out: Average of Relative viability of cells (%)): 100%
viability at 6.25 µM ([1]; Conc. 6.25 µM, read-out: Average of Relative viability of cells (%)): 91.9%
viability at 12.5 µM ([1]; Conc. 12.5 µM, read-out: Average of Relative viability of cells (%)): 72.7%
viability at 25 µM ([1]; Conc. 25 µM, read-out: Average of Relative viability of cells (%)): 63.1%
viability at 50 µM ([1]; Conc. 50 µM, read-out: Average of Relative viability of cells (%)): 50.2%
viability at 100 µM ([1]; Conc. 100 µM, read-out: Average of Relative viability of cells (%)): 38.1%
IC50 ([1]; mean ± SD, n = 3, read-out: In-vitro cytotoxicity IC50 (µM) HePG2): 51 ± 3 µM
viability at 3.125 µM ([2]; WI38 human lung fibroblast cells (normal cell line), Conc. 3.125 µM): 100%
viability at 1.56 µM ([2]; WI38 normal lung fibroblast cells, Conc. 1.56 µM): 100%
viability at 6.25 µM ([2]; WI38 normal lung fibroblast cells, Conc. 6.25 µM): 100%
viability at 12.5 µM ([2]; WI38 normal lung fibroblast cells, Conc. 12.5 µM): 93.6%
viability at 25 µM ([2]; WI38 normal lung fibroblast cells, Conc. 25 µM): 71.7%
viability at 50 µM ([2]; WI38 normal lung fibroblast cells, Conc. 50 µM): 54.8%
viability at 100 µM ([2]; WI38 normal lung fibroblast cells, Conc. 100 µM): 43.3%
IC50 [3]: 67.7 ± 3.4 µM
viability at 1.56 µM [5, 10]: 100%
viability at 3.125 µM [5, 10]: 100%
viability at 6.25 µM [5, 10]: 94.7%
viability at 12.5 µM [5, 10]: 79.3%
viability at 25 µM [5, 10]: 65.2%
viability at 50 µM [5, 10]: 58%
viability at 100 µM [5, 10]: 40.4%
IC50 ([5]; MCF7, read-out: In-vitro cytotoxicity IC50 (µM) MCF-7): 62.8 ± 3.3 µM
viability at 1.56 µM [6, 11]: 100%
viability at 3.125 µM [6, 11]: 85.9%
viability at 6.25 µM [6, 11]: 63.5%
viability at 12.5 µM [6, 11]: 48.1%
viability at 25 µM [6, 11]: 33.7%
viability at 50 µM [6, 11]: 25.8%
viability at 100 µM [6, 11]: 17%
IC50 ([6]; read-out: In-vitro cytotoxicity IC50 (µM) Hela): 13.8 ± 1 µM
viability at 1.56 µM [7, 11]: 100%
viability at 3.125 µM [7, 11]: 96.3%
viability at 6.25 µM [7, 11]: 78.2%
viability at 12.5 µM [7, 11]: 59.1%
viability at 25 µM [7, 11]: 46.8%
viability at 50 µM [7, 11]: 37%
viability at 100 µM [7, 11]: 23.5%
IC50 ([7]; read-out: In-vitro cytotoxicity IC50 (µM) PC3): 24.8 ± 1.9 µM

Compound: O=C(CN1CCN(c2nn3c(-c4ccccc4)nnc3c3ccccc23)CC1)Nc1ccc(F)cc1 [Compound VII]
IC50 [8]: 2 µM
IC50 [9]: 3.4 µM
